From patent EP0639197B1, “EXCITATORY AMINO ACID ANTAGONISTS” (GUILFORD PHARMACEUTICALS INC., priority 1990, dated 1992)

Key:
[1] = Rotorod test for motor impairment after i.c.v. administration; parameters: species or system male CF-1 mice; details: mouse, in vivo, icv or intrathecal; potency to impair rotorod performance; tested 10 minutes after i.c.v. administration; enriched mixtures, less than about 95% pure
Protocol: (§1) Anticonvulsant studies: The potency of the isomers of APCA to inhibit NMDA-induced seizures was evaluated using male CF-1 mice. All drugs were dissolved in isotonic saline and the pH adjusted to neutrality using NaOH. The test compounds were injected intracerebroventricularly (i.c.v.) in a final volume of […]. N-Methyl-D-aspartate (250mg/kg of body weight) was dissolved in saline (1% v/w of body weight) and injected intraperitoneally (i.p.) 15 minutes following the administration of the test agent. […] NMDA-induced seizures were defined as presence of tonic/clonic activity accompanied by hindlimb extension and death. Rotorod: Animals used for seizure studies were evaluated for motor impairment using the rotorod test. Before use all animals were tested for their ability to maintain equilibrium for 60 seconds on a 1-inch knurled bar rotating at a speed of 6 to 7 rpm. Each animal was given three separate trials. Animals performing the task in any of the three trials were used for further study.
Animals were tested for impairment 10 minutes after i.c.v. administration of the test agent and 5 minutes before administration of the seizure-inducing agent. Each animal was tested on a maximum of three trials; completion of any one of the trials was screened as passing.

[2] = Inhibition of NMDA-induced seizures after i.c.v. administration; assay type: in vivo, male CF-1 mice; details: mouse, in vivo, icv or intrathecal; ratio of rotorod TD50 to NMDA-seizure ED50; ICV administration
Protocol: as §1

NMDA-induced seizures = experiment: as above; assay type: in vivo, male CF-1 mice; details: for ED50: Mus musculus, central, potency to inhibit NMDA-induced seizures, ICV administration 15 minutes before NMDA 250mg/kg i.p., mixtures enriched in the stated isomer, less than about 95% pure
Protocol: as §1

NMDA receptors = experiment: Inhibition of specific binding of [3H]CGS-19755 to rat forebrain membranes; details: for IC50: [3H]CGS-19755 4.62 x 10^-9 M, rat forebrain membranes, 20min, 23 C, enriched mixtures, less than about 95% pure
Protocol: Binding studies: The potency of compounds to inhibit the specific binding of [^3H]CGS-19755 (specific activity 50.5 Ci/mmol, New England Nuclear, Boston, MA) to NMDA receptors was performed as described by Ferkany et al., (J. Pharmacology and Experimental Therapeutics, 1989, 250:100-109). Briefly, animals were sacrificed by decapitation, the forebrain removed immediately and the "buffy coat" prepared as described by Enna and Snyder (Enna, S. and Snyder, S.H., Molecular Pharmacology, 1977, 13:422-433). Crude synaptic membranes were stored frozen (-20 °C) until used. On the day of the assay, membranes were thawed to room temperature and homogenized in 20 vol (w/v) of assay buffer. The homogenate was centrifuged (48,000 x g; 10min; 4 °C), the supernatant decanted and the pellet resuspended as before. The procedure was repeated until the tissue had been washed 4 times to remove endogenous inhibitors.
For assay, the final pellet was resuspended in sufficient buffer (Tris HCl, 0.05M, pH 7.1, 23 °C) to yield a tissue concentration of 0.2mg of protein per ml. Two-milliliter portions of the suspension were added in duplicate to tubes containing ligand (final concentration = 4.62 x 10^- ^9 M) and the compound of interest ([…]). After an incubation of 20min (23 °C), the reaction was terminated by centrifugation, the supernatant was decanted and the pellets washed rapidly and superficially with 2 x 2.5ml of ice-cold buffer. Tissue was solubilized in Protosol (0.5 ml, New England Nuclear, Boston, MA) and after the addition of scintillant, radioactivity was determined using standard procedures.
Non specific binding was determined using L-glutamate at a final concentration of 10^-3 M. Routinely, IC50s were determined using 8-12 concentrations of inhibitor.

Structure (SMILES) | TD50 at 10 min [1] [mg/kg] | selectivity ratio [2] | ED50 (NMDA-induced seizures) [mg/kg] | IC50 (NMDA receptors) [nM] | fold more potent than the next most potent isomer (NMDA-induced seizures; in vivo effects of Table 1) | fold more potent than cis isomer C, the next most potent isomer (NMDA receptors; binding data of Table 2)
O=C(O)C1CN(CCCP(=O)(O)O)CCN1 (racemic) [(±) CPP, 4-(3-phosphonopropyl)-2-piperazine carboxylic acid, reference compound] | 10 | 4.5 | 2.2 | 190 ± 15 |  | 
O=C(O)[C@H]1C[C@@H](CP(=O)(O)O)CCN1 (relative stereo) [CGS-19755, cis-4-(phosphonomethyl)-2-piperidinecarboxylic acid, reference compound] | 17 | 6.4 | 2.64 |  |  | 
N[C@H](C[C@H]1CCCC[C@H]1CCP(=O)(O)O)C(=O)O (single isomer, unassigned) [cis isomer A, 2-amino-4,5-(1,2-cyclohexyl)-7-phosphonoheptanoic acid] | 32 | 30.5 | 1.05 | 270 ± 12 | at least 25 fold | approximately 8 fold
